Data taken from patent publication EP0160578A1, “1,8-Naphthyridine derivatives” (DAIICHI SEIYAKU CO., LTD., priority 1984, dated 1985).
≈ marks a conversion by molar mass, not a printed value.

Tests used:
Test in all cases: Antibacterial activity, dilution method in Muller-Hinton Bouillon (MIC)
Type in all cases: cell-based
[1] = tested on: E. coli, NIHJ; conditions: Escherichia coli, 10^6/ml bacteria, 37°C, 18 hours, read-out: Minimal Inhibitory Concentration (MIC)
Experimental: (§1) The antibacterial activity of the compounds of the present invention was determined by the standard method of the Japan Society of Chemotherapy: according to the dilution method in Muller-Hinton Bouillon, 10^6/ml of bacteria were seeded and incubated at 37°C for 18 hours.

[2] = tested on: Pr. mirabilis, 1287; conditions: Proteus mirabilis, 10^6/ml bacteria, 37°C, 18 hours, read-out: Minimal Inhibitory Concentration (MIC)
Experimental: as §1

[3] = tested on: Pr. vulgaris, 3167; conditions: Proteus vulgaris, 10^6/ml bacteria, 37°C, 18 hours, read-out: Minimal Inhibitory Concentration (MIC)
Experimental: as §1

[4] = tested on: Ps. aeruginosa, 2063; conditions: Pseudomonas aeruginosa, 10^6/ml bacteria, 37°C, 18 hours, read-out: Minimal Inhibitory Concentration (MIC)
Experimental: as §1

[5] = tested on: Ps. aeruginosa, 2128; conditions: Pseudomonas aeruginosa, 10^6/ml bacteria, 37°C, 18 hours, read-out: Minimal Inhibitory Concentration (MIC)
Experimental: as §1

[6] = tested on: Ps. aeruginosa, 2131; conditions: Pseudomonas aeruginosa, 10^6/ml bacteria, 37°C, 18 hours, read-out: Minimal Inhibitory Concentration (MIC)
Experimental: as §1

[7] = tested on: Ps. cepacia, IID1340; conditions: Burkholderia cepacia, 10^6/ml bacteria, 37°C, 18 hours, read-out: Minimal Inhibitory Concentration (MIC)
Experimental: as §1

[8] = tested on: Ps. maltophilia, IID1275; conditions: Stenotrophomonas maltophilia, 10^6/ml bacteria, 37°C, 18 hours, read-out: Minimal Inhibitory Concentration (MIC)
Experimental: as §1

[9] = tested on: S. aureus, Smith; conditions: Staphylococcus aureus, 10^6/ml bacteria, 37°C, 18 hours, read-out: Minimal Inhibitory Concentration (MIC)
Experimental: as §1

[10] = tested on: S. epidermis, 56556; conditions: 10^6/ml bacteria, 37°C, 18 hours, read-out: Minimal Inhibitory Concentration (MIC)
Experimental: as §1

[11] = tested on: Ser. marcescens, 13001; conditions: Serratia marcescens, 10^6/ml bacteria, 37°C, 18 hours, read-out: Minimal Inhibitory Concentration (MIC)
Experimental: as §1

[12] = tested on: Sh. flexneri, 2a5503; conditions: Shigella flexneri, 10^6/ml bacteria, 37°C, 18 hours, read-out: Minimal Inhibitory Concentration (MIC)
Experimental: as §1

[13] = tested on: Str. faecalis, ATCC19433; conditions: Enterococcus faecalis, 10^6/ml bacteria, 37°C, 18 hours, read-out: Minimal Inhibitory Concentration (MIC)
Experimental: as §1

[14] = tested on: Str. pyogenes, G-36; conditions: Streptococcus pyogenes, G36, 10^6/ml bacteria, 37°C, 18 hours, read-out: Minimal Inhibitory Concentration (MIC)
Experimental: as §1

SMILES	MIC [1] [µg/mL]	MIC [2] [µg/mL]	MIC [3] [µg/mL]	MIC [4] [µg/mL]	MIC [5] [µg/mL]	MIC [6] [µg/mL]	MIC [7] [µg/mL]	MIC [8] [µg/mL]	MIC [9] [µg/mL]	MIC [10] [µg/mL]	MIC [11] [µg/mL]	MIC [12] [µg/mL]	MIC [13] [µg/mL]	MIC [14] [µg/mL]
CN1CCCN(c2nc3c(cc2F)c(=O)c(C(=O)O)cn3C2CC2)CC1 [No. 6, 1-cyclopropyl-6-fluoro-7-(N-methyl-1-homopiperazinyl)-1,4-dihydro-4-oxo-1,8-naphthyridine-3-carboxylic acid]	≤ 0.05	0.2 (≈ 0.555 µM)	0.1 (≈ 0.277 µM)	0.78 (≈ 2.16 µM)	0.39 (≈ 1.08 µM)	0.78 (≈ 2.16 µM)	0.78 (≈ 2.16 µM)	0.39 (≈ 1.08 µM)	0.39 (≈ 1.08 µM)	0.39 (≈ 1.08 µM)	0.2 (≈ 0.555 µM)	0.1 (≈ 0.277 µM)	6.25 (≈ 17.3 µM)	6.25 (≈ 17.3 µM)
CCn1cc(C(=O)O)c(=O)c2cc(F)c(N3CCNCC3)nc21 [Control Compound, 1-ethyl-6-fluoro-7-(1-piperazinyl)-1,4-dihydro-4-oxo-1,8-naphthyridine-3-carboxylic acid, reference compound]	0.2 (≈ 0.624 µM)	0.2 (≈ 0.624 µM)	0.2 (≈ 0.624 µM)	0.78 (≈ 2.44 µM)	0.78 (≈ 2.44 µM)	0.2 (≈ 0.624 µM)	50 (≈ 156 µM)	0.78 (≈ 2.44 µM)	0.78 (≈ 2.44 µM)	0.78 (≈ 2.44 µM)	0.2 (≈ 0.624 µM)	0.2 (≈ 0.624 µM)	6.25 (≈ 19.5 µM)	25 (≈ 78 µM)
O=C(O)c1cn(C2CC2)c2nc(N3CCCNCC3)c(F)cc2c1=O [No. 5, 1-cyclopropyl-6-fluoro-7-(1-homopiperazinyl)-1,4-dihydro-4-oxo-1,8-naphthyridine-3-carboxylic acid]	≤ 0.05	0.1 (≈ 0.289 µM)	≤ 0.05	0.2 (≈ 0.577 µM)	0.1 (≈ 0.289 µM)	0.2 (≈ 0.577 µM)	0.78 (≈ 2.25 µM)	1.56 (≈ 4.5 µM)	0.39 (≈ 1.13 µM)	0.39 (≈ 1.13 µM)	0.1 (≈ 0.289 µM)	≤ 0.05	6.25 (≈ 18 µM)	12.5 (≈ 36.1 µM)
NC1CCN(c2nc3c(cc2F)c(=O)c(C(=O)O)cn3C2CC2)C1 (stereo not shown) [No. 2, 1-cyclopropyl-6-fluoro-7-(3-amino-1-pyrrolidinyl)-1,4-dihydro-4-oxo-1,8--naphthyridine-3-carboxylic acid]	≤ 0.05	≤ 0.05	≤ 0.05	≤ 0.05	≤ 0.05	0.1 (≈ 0.301 µM)	0.39 (≈ 1.17 µM)	0.39 (≈ 1.17 µM)	0.1 (≈ 0.301 µM)	0.1 (≈ 0.301 µM)	≤ 0.05	≤ 0.05	0.39 (≈ 1.17 µM)	0.78 (≈ 2.35 µM)
CN1CCN(c2nc3c(cc2F)c(=O)c(C(=O)O)cn3C2CC2)CC1 [No. 4, 1-cyclopropyl-6-fluoro-7-(4-methyl-1-piperazinyl)-1,4-dihydro-4-oxo-1,8-naphthyridine-3-carboxylic acid]	≤ 0.05	≤ 0.05	≤ 0.05	0.39 (≈ 1.13 µM)	0.2 (≈ 0.577 µM)	0.39 (≈ 1.13 µM)	1.56 (≈ 4.5 µM)	0.39 (≈ 1.13 µM)	0.2 (≈ 0.577 µM)	0.39 (≈ 1.13 µM)	≤ 0.05	≤ 0.05	3.13 (≈ 9.04 µM)	6.25 (≈ 18 µM)
CC1CN(c2nc3c(cc2F)c(=O)c(C(=O)O)cn3C2CC2)CCN1 (stereo not shown) [No. 7, 1-cyclopropyl-6-fluoro-7-(3-methyl-1-piperazinyl)-1,4-dihydro-4-oxo-1,8--naphthyridine-3-carboxylic acid]	≤ 0.05	0.1 (≈ 0.289 µM)	≤ 0.05	0.2 (≈ 0.577 µM)	0.2 (≈ 0.577 µM)	0.1 (≈ 0.289 µM)	0.39 (≈ 1.13 µM)	0.39 (≈ 1.13 µM)	0.39 (≈ 1.13 µM)	0.78 (≈ 2.25 µM)	≤ 0.05	≤ 0.05	3.13 (≈ 9.04 µM)	1.56 (≈ 4.5 µM)
O=C(O)c1cn(C2CC2)c2nc(N3CCNCC3)c(F)cc2c1=O [No. 1, 1-cyclopropyl-6-fluoro-7-(1-piperazinyl)-1,4-dihydro-4-oxo-1,8-naphthyridine-3-carboxylic acid]	≤ 0.05	≤ 0.05	≤ 0.05	0.1 (≈ 0.301 µM)	0.1 (≈ 0.301 µM)	0.1 (≈ 0.301 µM)	3.13 (≈ 9.42 µM)	0.78 (≈ 2.35 µM)	0.39 (≈ 1.17 µM)	0.39 (≈ 1.17 µM)	≤ 0.05	≤ 0.05	1.56 (≈ 4.69 µM)	6.25 (≈ 18.8 µM)
O=C(O)c1cn(C2CC2)c2nc(N3CCC(O)C3)c(F)cc2c1=O (stereo not drawn) [No. 3, l-cyclopropyl-6-fluoro-7-(3-hydroxy-l-pyrrolidinyl)-1,4-dihydro-4-oxo-1,8-naphthyridine-3-carboxylic acid]	≤ 0.05	≤ 0.05	≤ 0.05	0.39 (≈ 1.17 µM)	0.39 (≈ 1.17 µM)	0.78 (≈ 2.34 µM)	0.39 (≈ 1.17 µM)	0.39 (≈ 1.17 µM)	≤ 0.05	0.1 (≈ 0.3 µM)	0.1 (≈ 0.3 µM)	≤ 0.05	0.39 (≈ 1.17 µM)	1.56 (≈ 4.68 µM)
